Patent US20070059378A1, “Medical composition for balancing bodily processes” (Metagenics, Inc., priority 2001, published 2007)

System: subjects with PMS symptoms
Assay: Clinical study on PMS symptoms: Shortened Premenstrual Assessment Form (SPAF)
Format: in vivo, women
Conditions: medical food/I3C group vs medical food/placebo group
Description: The clinical trial was performed at the Functional Medicine Research Center, Gig Harbor, Wash. […] Exclusion criteria for the study included: evidence of untreated endocrine, neurological, or infectious disorder; pregnancy or lactation; history of diabetes, mental illness or attempted suicide, or liver, kidney or heart disease; use of oral corticosteroids within four weeks prior to the screening; use of anti-arrhythmic or other cardiac medications.
The study was a […], 2-armed trial with stratification based on the use of birth control medication. Primary endpoints were monitored at the Screening Visit, Visit 1, Visit 2, and Visit 3. […]
Two research-validated, PMS-specific questionnaires were chosen for monitoring PMS symptoms: the Shortened Premenstrual Assessment Form (SPAF) and the Menstrual Distress Questionnaire (MDQ). […] The MDQ data is transformed to provide a normalized score for which a population mean of 50 and a standard deviation of 10 have been determined as reference values. […]
Baseline data (the level of symptoms experienced in the preceding 2 menstrual cycles) were obtained from averaging the Screening Visit and Visit 1 values, and served as a control for non-intervention variability. Laboratory and questionnaire data were analyzed by a one-way analysis of variance (ANOVA) using JMP Statistical Package (SAS Institute, Cary, N.C.). […]

With OCc1c[nH]c2ccccc12 [Example I3C, indole-3-carbinol] as the compound, how does the “additional effect of I3C on PMS symptoms (questionnaire data) over medical food/placebo” value read?
Its value is “no difference”.

And the “additional effect of I3C on PMS symptoms (questionnaire data) over medical food/placebo” value (listed as 13C)?
The value was “no additional effect”.
